Laboratory results as given in patent US20240092803A1, “BRIDGED COMPOUNDS AS KRAS G12D INHIBITOR AND DEGRADER AND THE USE THEREOF” (BEIGENE SWITZERLAND GMBH, priority 2021, published 2024).
pIC50: −log10 of the molar value.

Key:
[1] = biological target: GST-tagged KRAS (amino acids 1-188) G12D binding to His-tagged SOS1 (Homo sapiens (Human), UniProt P01116, G12D); test: KRAS G12D:SOS1 GDP TR-FRET assay; conditions: GDP 10 μM; KRAS G12D 37.5 nM; SOS1 18 nM
Description: (§1) KRAS: SOS1 GDP TR-FRET Assay
(§2) This assay was used to identify compounds which competitively interact with the binding of KRAS protein to SOS1 in the presence of GDP. GST-tagged WT KRAS (amino acids 1-188), GST-tagged KRAS (amino acids 1-188) G12D and His- tagged SOS1 protein (amino acids 564-1049) was expressed in E. coli and purified. All protein and reaction solutions were prepared in assay buffer containing DPBS pH7.5, 0.1% BSA, and 0.05% Tween 20. Purified GST-tagged WT KRAS or KRAS G12D protein (37.5 nM final assay concentration) and GDP (Sigma, 10 μM final assay concentration) mixture, a serially diluted compound (top final concentration is 50 uM or 10 uM, 3-fold serially diluted, 10 points) and His-tagged SOS1 protein (18 nM final assay concentration) were added into the assay plates (384 well microplate, black, Corning) sequentially. Plates are incubated at 24° C. for 1 hr. Following the incubation, Mab Anti-6His-Tb cryptate (Cisbio) and Mab Anti GST-D2 (Cisbio) were added and further incubated at 24° C. for another 1 hr. The TR-FRET signals (ex337nm, em665nm/620nm) were read on BMG PHERAstar FSX instrument. The inhibition percentage of KRAS protein binding with SOS1 in presence of increasing concentrations of compounds was calculated based on the ratio of fluorescence at 665 nm to that at 620 nm. The IC50 value of each compound was calculated from fitting the data to the four-parameter logistic model by Dotmatics.

[2] = system: pERK1/2(THR202/TYR204) level in AsPC-1 cells; test: pERK assay (HTRF) in AsPC-1 cells; format: cell-based; conditions: Homo sapiens, ASPC1, 2 h compound treatment
Description: AsPC-1 cell line was used in this study. Cells were maintained in RPMI-1640 supplemented with 10% fetal bovine serum (Thermo Fisher), 50 units/mL penicillin and streptomycin (Thermo Fisher) and kept at 37° C. in a humidified atmosphere of 5% CO2 in air. Cells were reinstated from frozen stocks that were laid down within 30 passages from the original cells purchased. 30000 cells per well were seeded into a 96-well plate and incubated overnight. Cells were treated with a 10-point dilution series. The final compound concentration is from 0 to 10 μM. After 2 h compound treatment, cells were lysed, and the pERK1/2(THR202/TYR204) level in the cell lysates was detected by HTRF kit (Cisbio). In brief, a total of 16 μl of cell lysate from each well of a 96-well plate was transferred to a 384-well white assay plate. Lysate from each well was incubated with 2 μL of Eu3+- cryptate (donor) labeled anti-phospho-ERK1/2 and 2 μL of D2 (acceptor) labeled anti-phospho-ERK1/2 antibodies (Cisbio) overnight in dark at room temperature. When donor and acceptor are in close proximity, excitation of the donor with laser triggers a Fluorescence Resonance Energy Transfer (FRET) towards the acceptor, which in turn fluoresces at 655 nm wavelength. FRET signals were measured using a PHERAstar FSX reader (BMG Labtech). IC50 determination was performed by fitting the curve of percent inhibition versus the log of the inhibitor concentration using Dotmatics.

[3] = biological target: GST-tagged WT KRAS (amino acids 1-188) binding to His-tagged SOS1 (Homo sapiens (Human), UniProt P01116); test: KRAS WT:SOS1 GDP TR-FRET assay; conditions: GDP 10 μM; WT KRAS 37.5 nM; SOS1 18 nM
Sequence of GST-tagged WT KRAS (amino acids 1-188) binding to His-tagged SOS1 (P01116 other isoform, or with tags, fused parts or gaps): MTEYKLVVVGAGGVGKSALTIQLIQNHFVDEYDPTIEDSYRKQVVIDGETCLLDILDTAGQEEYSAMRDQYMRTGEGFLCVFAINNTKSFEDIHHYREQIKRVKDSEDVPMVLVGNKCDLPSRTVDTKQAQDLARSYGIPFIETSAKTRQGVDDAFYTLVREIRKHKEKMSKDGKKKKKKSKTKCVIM
Description: as §1, §2

[4] = biological target: KRAS G12D HiBiT in HEK293 KRAS-G12D NanoLuc cell pool (Homo sapiens (Human), UniProt P01116, G12D); test: KRAS G12D NanoLuc assay; format: cell-based; conditions: 24 h compound treatment
Sequence of KRAS G12D HiBiT in HEK293 KRAS-G12D NanoLuc cell pool (P01116 other isoform, or with tags, fused parts or gaps G12D): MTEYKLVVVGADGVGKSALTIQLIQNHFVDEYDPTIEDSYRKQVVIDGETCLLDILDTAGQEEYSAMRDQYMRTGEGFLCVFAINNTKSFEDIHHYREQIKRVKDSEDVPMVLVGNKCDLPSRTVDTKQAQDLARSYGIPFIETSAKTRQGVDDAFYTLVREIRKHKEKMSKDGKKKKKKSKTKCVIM
Description: HEK293 KRAS-G12D NanoLuc cell pool was used in this study. The cells were stable expressing KRAS G12D HiBiT and LgBiT. Cells were maintained in DMEM supplemented with 10% fetal bovine serum (Thermo Fisher), 50 units/mL penicillin and streptomycin (Thermo Fisher) and kept at 37° C. in a humidified atmosphere of 5% CO2 in air. Cells were reinstated from frozen stocks that were laid down within 30 passages from the cell pool was constructed. 20000 cells per well were seeded a 96-well White with Clear Flat bottom plate for 4 h. Cells were treated with a 10-point dilution series. The final compound concentration is from 0 to 10 μM. After 24 h compound treatment, added 20 μL of CellTiter-Fluor reagent (Promega) to plates, shook for 2 min, incubated at least 30 min in 37° C. Added 25 μL of NanoGlo Live cell reagent (Promega) to the same plate. shook by mini-shaker for 5 min. Measure Luminescence and Fluorescence (380-400nmEx/505nmEm) signals immediately using a PHERAstar FSX reader (BMG Labtech). DC50 determination was performed by fitting the curve of percent inhibition versus the log of the inhibitor concentration using Excel and GraphPad Prism 8.

Sequence of GST-tagged KRAS (amino acids 1-188) G12D binding to His-tagged SOS1 (P01116 other isoform, or with tags, fused parts or gaps G12D): as above

SMILES | pIC50 [1] | pIC50 [2] | pIC50 [3] | DC50 [4] [µM] | Dmax [4] [%]
CN1CCC[C@H]1COc1nc2c(c(N3CC4CCC(C3)N4)n1)CCN(c1cc(N)cc(Cl)c1Cl)C2 [Example 13] | 7.57 | 5.39 | < 5.00 |  | 
CN1C[C@H](F)C[C@H]1COc1nc2c(c(N3CC4CCC(C3)N4)n1)CCN(c1cccc3cccc(Cl)c13)C2 [Example 15, 4-(3,8-diazabicyclo[3.2.1]octan-3-yl)-7-(8-chloronaphthalen-1-yl)-2-(((2S,4R)-4-fluoro-1-methylpyrrolidin-2-yl)methoxy)-5,6,7,8-tetrahydropyrido[3,4-d]pyrimidine] | 7.39 | 5.39 | < 5.00 |  | 
CN1CCC[C@H]1COc1nc2c(c(N3CC4CCC(C3)N4)n1)CCN(c1cccc3cccc(Cl)c13)C2 [Example 7, 4-(3,8-diazabicyclo[3.2.1]octan-3-yl)-7-(8-chloronaphthalen-1-yl)-2-(((S)-1-methylpyrrolidin-2-yl)methoxy)-5,6,7,8-tetrahydropyrido[3,4-d]pyrimidine] | 7.23 | 5.17 | 4.76 |  | 
Cc1cccc2cccc(N3CCc4c(nc(OC[C@@H]5CCCN5C)nc4N4CC5CC(C4)N5)C3)c12 [Example 8, 3-(7-(8-methylnaphthalen-1-yl)-2-(((S)-1-methylpyrrolidin-2-yl)methoxy)-5,6,7,8-tetrahydropyrido[3,4-d]pyrimidin-4-yl)-3,6-diazabicyclo[3.1.1]heptane] | 6.13 |  | < 5.00 |  | 
CN1CCC[C@H]1COc1nc2c(c(N3CC4CCC(C3)N4)n1)CCN(c1cc(N)cc(Cl)c1C(F)(F)F)C2 [Example 12, 3-(4-(3,8-diazabicyclo[3.2.1]octan-3-yl)-2-(((S)-1-methylpyrrolidin-2-yl)methoxy)-5,8-dihydropyrido[3,4-d]pyrimidin-7(6H)-yl)-5-chloro-4-(trifluoromethyl)aniline] | 8.01 | 5.71 | 5.62 |  | 
Cc1cccc2cccc(N3CCc4c(nc(OC[C@@H]5CCCN5C)nc4N4CC5CC4CN5)C3)c12 (stereo partly drawn) [Example 4, 4-(2,5-diazabicyclo[2.2.1]heptan-2-yl)-7-(8-methylnaphthalen-1-yl)-2-(((S)-1-methylpyrrolidin-2-yl)methoxy)-5,6,7,8-tetrahydropyrido[3,4-d]pyrimidine] | 5.59 |  | < 4.30 |  | 
CO[C@@H]1C[C@@H](COc2nc3c(c(N4CC5CCC(C4)N5)n2)CCN(c2cccc4cccc(Cl)c24)C3)N(C)C1 [Example 14, 4-(3,8-diazabicyclo[3.2.1]octan-3-yl)-7-(8-chloronaphthalen-1-yl)-2-(((2S,4R)-4-methoxy-1-methylpyrrolidin-2-yl)methoxy)-5,6,7,8-tetrahydropyrido[3,4-d]pyrimidine] | 6.90 | < 5.00 | < 5.00 |  | 
Cc1cccc2cccc(N3CCc4c(nc(OC[C@@H]5CCCN5C)nc4N4CCNCC4)C3)c12 [Example 1, (S)-7-(8-methylnaphthalen-1-yl)-2-((1-methylpyrrolidin-2-yl)methoxy)-4-(piperazin-1-yl)-5,6,7,8-tetrahydropyrido[3,4-d]pyrimidine] | 4.64 |  | < 4.30 |  | 
CN1CCC[C@H]1COc1nc2c(c(N3CC4CCC(C3)N4)n1)CCN(c1cccc3ccc(Cl)c(Cl)c13)C2 [Example 9] | 7.20 | 5.00 | < 5.00 |  | 
Cc1ncsc1-c1ccc([C@H](C)NC(=O)[C@@H]2C[C@@H](O)CN2C(=O)[C@@H](NC(=O)CCCCCCN2CCC[C@H]2COc2nc3c(c(N4CC5CCC(C4)N5)n2)CCN(c2cccc4cccc(Cl)c24)C3)C(C)(C)C)cc1 [Example 16] |  |  |  | 1 | 73
Cc1cccc2cccc(N3CCc4c(nc(OC[C@@H]5CCCN5C)nc4N4C5CCC4C(N)C5)C3)c12 (stereo partly drawn) [Example 2, 7-(7-(8-methylnaphthalen-1-yl)-2-(((S)-1-methylpyrrolidin-2-yl)methoxy)-5,6,7,8-tetrahydropyrido[3,4-d]pyrimidin-4-yl)-7-azabicyclo[2.2.1]heptan-2-amine] | 5.35 |  | 4.47 |  | 
CN1CCC[C@H]1COc1nc2c(c(N3CC4CCC(C3)N4)n1)CCN(c1cccc3ccc(F)c(Cl)c13)C2 [Example 11] | 7.92 | 5.33 | 5.44 |  | 
Cc1cccc2cccc(N3CCc4c(nc(OC[C@@H]5CCCN5C)nc4N4CC5CCC4CN5)C3)c12 (stereo partly drawn) [Example 6, 2-(7-(8-methylnaphthalen-1-yl)-2-(((S)-1-methylpyrrolidin-2-yl)methoxy)-5,6,7,8-tetrahydropyrido[3,4-d]pyrimidin-4-yl)-2,5-diazabicyclo[2.2.2]octane] | 6.15 |  | < 4.30 |  | 
Cc1cccc2cccc(N3CCc4c(nc(OC[C@@H]5CCCN5C)nc4N4CC5CCC(C4)N5)C3)c12 [Example 5, 4-(3,8-diazabicyclo[3.2.1]octan-3-yl)-7-(8-methylnaphthalen-1-yl)-2-(((S)-1-methylpyrrolidin-2-yl)methoxy)-5,6,7,8-tetrahydropyrido[3,4-d]pyrimidine] | 6.93 | < 5.00 | < 4.30 |  | 
CN1CCC[C@H]1COc1nc2c(c(N3C4CCC3CNC4)n1)CCN(c1cccc3cccc(Cl)c13)C2 [Example 3, 4-(3,8-diazabicyclo[3.2.1]octan-8-yl)-7-(8-chloronaphthalen-1-yl)-2-(((S)-methylpyrrolidin-2-yl)methoxy)-5,6,7,8-tetrahydropyrido[3,4-d]pyrimidine] | 6.20 |  | < 4.30 |  | 
CN1CCC[C@H]1COc1nc2c(c(N3CC4CCC(C3)N4)n1)CCN(c1cc(O)cc3ccccc13)C2 [Example 10] | 7.66 |  | 5.21 |  | 
